Assay results published in article PMC3923664, “A Long-Chain Flavodoxin Protects Pseudomonas aeruginosa from Oxidative Stress and Host Bacterial Clearance” (PLoS Genetics, 2014).

What was measured:
FldA = target: T1, FldA (Escherichia coli, UniProt P61949); test: UV-visible absorption spectrum of purified holoprotein; format: binding; conditions: co-purified prosthetic group; 50 mM Tris-HCl pH 8.5
T1 construct: purified; preparation not described
T1 sequence (P61949 2-176): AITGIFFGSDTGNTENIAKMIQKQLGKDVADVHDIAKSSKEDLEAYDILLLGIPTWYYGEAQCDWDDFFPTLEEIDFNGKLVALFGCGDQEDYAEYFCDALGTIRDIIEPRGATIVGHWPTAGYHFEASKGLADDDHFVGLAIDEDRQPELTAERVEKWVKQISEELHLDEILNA

IsiB = target: T2, IsiB (Nostoc sp. PCC 7119, UniProt P0A3E0); test: as above; format: binding; conditions: co-purified prosthetic group; 50 mM Tris-HCl pH 8.5
T2 construct: recombinant, expressed in E. coli and purified after Fillat et al; long-chain flavodoxin
T2 sequence (P0A3E0 2-170): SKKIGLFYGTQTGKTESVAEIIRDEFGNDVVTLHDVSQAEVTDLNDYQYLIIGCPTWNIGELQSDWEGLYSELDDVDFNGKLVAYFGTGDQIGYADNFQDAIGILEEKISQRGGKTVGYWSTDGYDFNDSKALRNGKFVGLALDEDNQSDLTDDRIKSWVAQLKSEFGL

Cc1cc2nc3c(=O)[nH]c(=O)nc-3n(C[C@H](O)[C@H](O)[C@H](O)COP(=O)(O)O)c2cc1C [FMN]
UV-visible absorption spectrum of purified holoprotein (FldA): is strongly red-shifted in the flavodoxins from Anabaena and E. coli (Figure 2A)
UV-visible absorption spectrum of purified holoprotein (IsiB): is strongly red-shifted in the flavodoxins from Anabaena and E. coli (Figure 2A)
